Measurements reported in patent US20110206650A1, “Probiotic Formulations” (BRACCO IMAGING S.P.A., priority 2008, published 2011).

What was measured:
[1] = system: Staphylococcus epidermidis; details: Ref. 22; cited from earlier work
[2] = acute oral semilethal dose (LD50) in mice; details: mouse, in vivo
Description: Thus, DTPA is a safe oral drug, representing a preferred iron chelator for the compositions of the present invention.
It is therefore a further preferred iron chelator for the compositions of the invention.

[3] = system: mice; details: cited from earlier work
[4] = system: Corynebacterium xerosis ATCC 7711; details: Ref. 23; cited from earlier work
[5] = in vivo; cited from earlier work

O=C(O)CN(CC(=O)O)[C@@H]1CCCC[C@H]1N(CC(=O)O)CC(=O)O (relative stereo) [CDTA, trans-1,2-diaminocyclohexane-N,N,N′,N′-tetraacetic acid]
inhibition of growth of Staphylococcus epidermidis [1]: inhibit the growth

O=C(O)CN(CCN(CC(=O)O)CC(=O)O)CCN(CC(=O)O)C(COCc1ccccc1)C(=O)O (centres unmarked) [BOPTA, 4-carboxy-5,8,11-tris(carboxymethyl)-1-phenyl-2-oxa-5,8,11-triazatridecan-13-oic acid]
LD50 [2]: 8400 µmol/kg

O=C(O)CN(CCN(CC(=O)O)CC(=O)O)CCN(CC(=O)O)CC(=O)O [DTPA, diethylenetriaminepentaacetic acid]
inhibition of growth of Staphylococcus epidermidis [1]: inhibit the growth | acute oral semilethal dose (LD50) [3]: 3500 mg/kg

O=C(O)CN(CCN(CC(=O)O)CC(=O)O)CC(=O)O [EDTA, ethylenediaminetetraacetic acid]
inhibition of growth of Staphylococcus epidermidis [1]: inhibit the growth

O=C(O)C[C@H](NCCN[C@@H](CC(=O)O)C(=O)O)C(=O)O [R,S-EDDS, R,S-ethylenediaminedisuccinic acid]
inhibition of growth of Corynebacterium xerosis ATCC 7711 [4]: inhibit growth

O=C(O)CN(CCN(CCN(CC(=O)O)CC(=O)O)CC(=O)O)CCN(CC(=O)O)CC(=O)O [TTHA, triethylene-tetraaminehexaacetic acid]
inhibition of growth of Staphylococcus epidermidis [1]: inhibit the growth

O=C([O-])CN(CCN(CC(=O)[O-])CC(=O)[O-])CCN(CC(=O)[O-])CC(=O)[O-].[H+].[H+].[Na+].[Na+].[Na+] [trisodium pentetate]
safety of oral dose [5]: proven to be safe
